For three compounds, IC50 and Ki results are on record in ChEMBL document CHEMBL1909046, “DrugMatrix in vitro pharmacology data”.

Sequence of Melanocortin receptor 5 (P33032 whole entry): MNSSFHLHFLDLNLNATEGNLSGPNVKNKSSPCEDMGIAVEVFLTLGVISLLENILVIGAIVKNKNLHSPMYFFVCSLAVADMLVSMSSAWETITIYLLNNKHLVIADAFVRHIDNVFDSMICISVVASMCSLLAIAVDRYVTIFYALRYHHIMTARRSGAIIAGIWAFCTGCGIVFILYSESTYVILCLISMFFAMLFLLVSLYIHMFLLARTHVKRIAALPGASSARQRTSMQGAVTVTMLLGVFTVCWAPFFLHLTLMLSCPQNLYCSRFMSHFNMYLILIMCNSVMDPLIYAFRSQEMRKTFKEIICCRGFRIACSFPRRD
Sequence of 5-hydroxytryptamine receptor 1B (P28564 whole entry): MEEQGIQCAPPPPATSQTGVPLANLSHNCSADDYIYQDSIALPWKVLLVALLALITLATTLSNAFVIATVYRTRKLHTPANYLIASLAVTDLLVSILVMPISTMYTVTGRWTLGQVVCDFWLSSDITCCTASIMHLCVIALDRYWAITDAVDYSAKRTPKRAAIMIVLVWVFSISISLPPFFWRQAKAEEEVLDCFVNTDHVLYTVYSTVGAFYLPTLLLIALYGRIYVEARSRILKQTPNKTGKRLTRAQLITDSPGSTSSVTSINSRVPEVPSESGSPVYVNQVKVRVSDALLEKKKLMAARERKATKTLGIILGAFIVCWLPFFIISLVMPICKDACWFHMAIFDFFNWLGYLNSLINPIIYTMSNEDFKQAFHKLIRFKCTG
Sequence of Sodium-dependent dopamine transporter (Q01959 whole entry): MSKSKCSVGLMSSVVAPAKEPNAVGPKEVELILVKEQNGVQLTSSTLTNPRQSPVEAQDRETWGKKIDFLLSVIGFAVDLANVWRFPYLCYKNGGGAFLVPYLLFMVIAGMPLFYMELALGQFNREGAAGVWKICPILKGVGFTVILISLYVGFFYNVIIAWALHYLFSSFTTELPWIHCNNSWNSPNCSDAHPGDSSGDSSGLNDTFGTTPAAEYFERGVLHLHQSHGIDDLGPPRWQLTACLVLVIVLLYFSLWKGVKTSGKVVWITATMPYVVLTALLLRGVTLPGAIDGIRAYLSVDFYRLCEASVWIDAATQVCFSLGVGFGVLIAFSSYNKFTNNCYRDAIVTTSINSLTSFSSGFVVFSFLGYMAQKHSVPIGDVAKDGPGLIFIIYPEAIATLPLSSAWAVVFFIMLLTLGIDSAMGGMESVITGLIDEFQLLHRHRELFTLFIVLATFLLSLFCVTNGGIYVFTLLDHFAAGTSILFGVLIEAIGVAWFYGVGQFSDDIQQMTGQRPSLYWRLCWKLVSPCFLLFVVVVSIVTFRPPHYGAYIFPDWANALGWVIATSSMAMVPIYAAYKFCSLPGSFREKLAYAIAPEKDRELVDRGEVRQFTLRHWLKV

The target in the first test is Receptor tyrosine-protein kinase erbB-2 (Homo sapiens, UniProt P04626). Description: biochemical. To be noted: insect cells. The format is cell-based, Insect cells.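 Further: inhibition of HER2 kinase enzyme activity, measured with Poly(Glu:Tyr) as the phosphorylation substrate; in other assays of this panel Not Active means under 50% inhibition at 10 µM.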
Sequence of Receptor tyrosine-protein kinase erbB-2 (P04626 whole entry): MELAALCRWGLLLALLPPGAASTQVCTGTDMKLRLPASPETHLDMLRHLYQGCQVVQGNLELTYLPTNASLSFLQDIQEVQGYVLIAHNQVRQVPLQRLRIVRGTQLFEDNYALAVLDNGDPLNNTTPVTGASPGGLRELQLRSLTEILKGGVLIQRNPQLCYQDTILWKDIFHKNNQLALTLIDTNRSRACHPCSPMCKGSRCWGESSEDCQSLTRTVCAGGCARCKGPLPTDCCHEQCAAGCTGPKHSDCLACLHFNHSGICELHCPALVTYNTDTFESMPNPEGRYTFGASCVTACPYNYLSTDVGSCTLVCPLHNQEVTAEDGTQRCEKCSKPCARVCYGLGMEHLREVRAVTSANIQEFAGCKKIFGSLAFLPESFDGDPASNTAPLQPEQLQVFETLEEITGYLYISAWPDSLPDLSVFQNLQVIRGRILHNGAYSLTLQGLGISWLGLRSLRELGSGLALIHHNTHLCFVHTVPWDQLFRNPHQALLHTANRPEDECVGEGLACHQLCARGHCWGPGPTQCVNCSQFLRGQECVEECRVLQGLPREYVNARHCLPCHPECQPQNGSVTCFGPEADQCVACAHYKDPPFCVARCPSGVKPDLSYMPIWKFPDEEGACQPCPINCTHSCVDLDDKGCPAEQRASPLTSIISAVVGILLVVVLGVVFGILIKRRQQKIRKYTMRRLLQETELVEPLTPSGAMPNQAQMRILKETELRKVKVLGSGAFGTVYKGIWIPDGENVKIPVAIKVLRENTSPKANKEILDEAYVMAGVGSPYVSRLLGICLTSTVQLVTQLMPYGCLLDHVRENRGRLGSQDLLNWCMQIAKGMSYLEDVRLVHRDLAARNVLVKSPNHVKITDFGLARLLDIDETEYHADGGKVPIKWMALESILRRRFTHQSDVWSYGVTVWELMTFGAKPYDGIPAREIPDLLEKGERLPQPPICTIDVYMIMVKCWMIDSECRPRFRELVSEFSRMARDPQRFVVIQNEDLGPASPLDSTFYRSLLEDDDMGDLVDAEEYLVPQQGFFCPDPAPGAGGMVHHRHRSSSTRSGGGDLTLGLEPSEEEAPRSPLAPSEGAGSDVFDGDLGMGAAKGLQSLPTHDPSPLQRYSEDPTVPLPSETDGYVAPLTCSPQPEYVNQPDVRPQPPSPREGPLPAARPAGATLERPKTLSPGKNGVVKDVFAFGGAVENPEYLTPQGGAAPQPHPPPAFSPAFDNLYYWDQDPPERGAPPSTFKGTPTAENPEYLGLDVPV
`CC(C)(C)NCC(O)c1ccc(O)c(CO)c1` (stereo not given) [ALBUTEROL]: the IC50 entry is listed as “Not Active”.
Still for that read-out and setting: for `CC1(C)[C@H]2CC[C@]1(C)C(=O)C2` [(-)-CAMPHOR] the value was “Not Active”.

The test is the same for the next values; noted with them: read-out: IC50.
In the case of `O=C1c2c(O)ccc(O)c2C(=O)c2c(NCCNCCO)ccc(NCCNCCO)c21` [MITOXANTRONE], the IC50 worked out at 2040 nM.

Test system in the next test: not listed separately
Description: DRUGMATRIX: GABAA, Flunitrazepam, Central radioligand binding (ligand: [3H] Flunitrazepam). The format is cell membranes, Rattus norvegicus, Wistar, Brain, Membrane. To be noted: Not Active = under 50% inhibition at 10 µM.
As for `O=C1c2c(O)ccc(O)c2C(=O)c2c(NCCNCCO)ccc(NCCNCCO)c21` [MITOXANTRONE], the IC50 result was “Not Active” and the Ki entry is given as “Not Active”.
In the case of `CC(C)(C)NCC(O)c1ccc(O)c(CO)c1` (stereo not given) [ALBUTEROL], the IC50 result is on record as “Not Active” and the Ki entry was “Not Active”.
Consider `CC1(C)[C@H]2CC[C@]1(C)C(=O)C2` [(-)-CAMPHOR], for which the IC50 result is on record as “Not Active” and the Ki result is “Not Active”.

The next test addresses 5-hydroxytryptamine receptor 1B (Rattus norvegicus, UniProt P28564).
Experiment: not given
The format is cell membranes, Wistar, Cerebral cortex, Membrane.
Conditions: not given
Consider `O=C1c2c(O)ccc(O)c2C(=O)c2c(NCCNCCO)ccc(NCCNCCO)c21` [MITOXANTRONE], for which the IC50 result was “Not Active”.
Still for that read-out and setting: for `CC(C)(C)NCC(O)c1ccc(O)c(CO)c1` (stereo not given) [ALBUTEROL] the value was “Not Active”.
Same read-out and setting: under `CC1(C)[C@H]2CC[C@]1(C)C(=O)C2` [(-)-CAMPHOR] stands “Not Active”.

The target of another test is Tyrosine-protein kinase Fyn (Homo sapiens, UniProt P06241). Description: biochemical. To be noted: insect cells. The class given is cell-based, Insect cells.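 Further: enzymatic inhibition of Fyn kinase activity measured with Poly(Glu:Tyr) as the phosphorylation substrate; in other assays of this panel Not Active means under 50% inhibition at 10 µM.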
Sequence of Tyrosine-protein kinase Fyn (P06241 whole entry): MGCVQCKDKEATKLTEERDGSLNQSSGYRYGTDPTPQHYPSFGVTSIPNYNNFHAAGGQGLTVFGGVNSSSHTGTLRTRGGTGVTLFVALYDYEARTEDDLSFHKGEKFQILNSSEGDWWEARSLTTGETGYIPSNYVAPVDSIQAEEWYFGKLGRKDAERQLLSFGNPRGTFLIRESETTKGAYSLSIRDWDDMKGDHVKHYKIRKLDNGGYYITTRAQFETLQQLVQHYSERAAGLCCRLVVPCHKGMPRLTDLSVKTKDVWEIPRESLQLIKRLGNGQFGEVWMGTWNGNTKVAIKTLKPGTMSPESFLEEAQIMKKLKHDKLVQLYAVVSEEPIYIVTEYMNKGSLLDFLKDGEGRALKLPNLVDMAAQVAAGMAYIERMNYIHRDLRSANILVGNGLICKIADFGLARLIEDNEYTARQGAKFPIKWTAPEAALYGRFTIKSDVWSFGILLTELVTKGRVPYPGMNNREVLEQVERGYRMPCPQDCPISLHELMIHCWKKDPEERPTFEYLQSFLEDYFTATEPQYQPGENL
For the compound `CC(C)(C)NCC(O)c1ccc(O)c(CO)c1` (stereo not given) [ALBUTEROL], the IC50 result is given as “Not Active”.
With `CC1(C)[C@H]2CC[C@]1(C)C(=O)C2` [(-)-CAMPHOR], the IC50 result is “Not Active”.

The same test, now with this note: read-out: IC50.
Take `O=C1c2c(O)ccc(O)c2C(=O)c2c(NCCNCCO)ccc(NCCNCCO)c21` [MITOXANTRONE]: the IC50 came out at 1260 nM.

The target of another test is T1, Muscarinic acetylcholine receptor M5 (Homo sapiens, UniProt P08912). Further: in other assays of this panel Not Active means under 50% inhibition at 10 µM.
T1 sequence (P08912 whole entry): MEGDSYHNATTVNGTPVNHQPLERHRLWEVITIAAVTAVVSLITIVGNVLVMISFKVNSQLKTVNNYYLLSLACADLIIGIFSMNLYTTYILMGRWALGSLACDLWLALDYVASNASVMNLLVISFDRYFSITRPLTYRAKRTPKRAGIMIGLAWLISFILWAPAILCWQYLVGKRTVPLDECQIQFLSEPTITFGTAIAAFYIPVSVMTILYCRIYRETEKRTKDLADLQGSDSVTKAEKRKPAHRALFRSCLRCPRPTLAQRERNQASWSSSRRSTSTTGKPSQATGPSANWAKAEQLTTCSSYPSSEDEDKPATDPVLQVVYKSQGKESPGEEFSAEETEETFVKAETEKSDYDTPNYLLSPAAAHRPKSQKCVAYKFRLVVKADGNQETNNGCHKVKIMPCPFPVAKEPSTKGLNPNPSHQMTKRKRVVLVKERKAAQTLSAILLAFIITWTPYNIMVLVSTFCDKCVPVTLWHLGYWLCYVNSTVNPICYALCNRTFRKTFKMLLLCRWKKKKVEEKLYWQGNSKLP
Experiment: not given
The class given is cell membranes, CHO-K1, Membrane. To be noted: cho-k1.
With `O=C1c2c(O)ccc(O)c2C(=O)c2c(NCCNCCO)ccc(NCCNCCO)c21` [MITOXANTRONE], the IC50 entry is “Not Active”.
Same read-out and setting: for `CC(C)(C)NCC(O)c1ccc(O)c(CO)c1` (stereo not given) [ALBUTEROL] the value was “Not Active”.
`CC1(C)[C@H]2CC[C@]1(C)C(=O)C2` [(-)-CAMPHOR]: the IC50 entry is recorded as “Not Active”.

Test system in another test: not listed separately
Kind of test: DRUGMATRIX: Sigma2 radioligand binding (ligand: [3H] Ifenprodil). The format is cell membranes, Rattus norvegicus, Wistar, Brain, Membrane. To be noted: Not Active = under 50% inhibition at 10 µM.
Consider `O=C1c2c(O)ccc(O)c2C(=O)c2c(NCCNCCO)ccc(NCCNCCO)c21` [MITOXANTRONE], for which the IC50 result is listed as “Not Active” and the Ki result was “Not Active”.
With `CC(C)(C)NCC(O)c1ccc(O)c(CO)c1` (stereo not given) [ALBUTEROL], the IC50 result is reported as “Not Active” and the Ki entry is on record as “Not Active”.
`CC1(C)[C@H]2CC[C@]1(C)C(=O)C2` [(-)-CAMPHOR]: the IC50 entry was “Not Active” and the Ki result is “Not Active”.

The target of the next test is T2, Neutrophil elastase (Homo sapiens, UniProt P08246).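 Further: inhibition of neutrophil elastase enzyme activity, measured with a p-nitroanilide-linked peptide substrate; in other assays of this panel Not Active means under 50% inhibition at 10 µM.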
T2 sequence (P08246 whole entry): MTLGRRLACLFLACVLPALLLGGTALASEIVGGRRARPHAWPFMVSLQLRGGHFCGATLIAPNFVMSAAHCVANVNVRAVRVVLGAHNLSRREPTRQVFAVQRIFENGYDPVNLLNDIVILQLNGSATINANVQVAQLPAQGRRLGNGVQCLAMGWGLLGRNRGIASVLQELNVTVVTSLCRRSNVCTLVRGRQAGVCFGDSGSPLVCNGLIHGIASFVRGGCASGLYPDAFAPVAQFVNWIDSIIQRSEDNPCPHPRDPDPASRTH
Experiment: not given
Conditions: not given
The format is tissue-based.
Regarding `O=C1c2c(O)ccc(O)c2C(=O)c2c(NCCNCCO)ccc(NCCNCCO)c21` [MITOXANTRONE], the IC50 result was “Not Active”.
Still for that read-out and setting: under `CC(C)(C)NCC(O)c1ccc(O)c(CO)c1` (stereo not given) [ALBUTEROL] stands “Not Active”.
On the same count and under the same terms, under `CC1(C)[C@H]2CC[C@]1(C)C(=O)C2` [(-)-CAMPHOR] stands “Not Active”.

In the next test the target is T3, Muscarinic acetylcholine receptor M4 (Homo sapiens, UniProt P08173). Further: in other assays of this panel Not Active means under 50% inhibition at 10 µM.
T3 sequence (P08173 whole entry): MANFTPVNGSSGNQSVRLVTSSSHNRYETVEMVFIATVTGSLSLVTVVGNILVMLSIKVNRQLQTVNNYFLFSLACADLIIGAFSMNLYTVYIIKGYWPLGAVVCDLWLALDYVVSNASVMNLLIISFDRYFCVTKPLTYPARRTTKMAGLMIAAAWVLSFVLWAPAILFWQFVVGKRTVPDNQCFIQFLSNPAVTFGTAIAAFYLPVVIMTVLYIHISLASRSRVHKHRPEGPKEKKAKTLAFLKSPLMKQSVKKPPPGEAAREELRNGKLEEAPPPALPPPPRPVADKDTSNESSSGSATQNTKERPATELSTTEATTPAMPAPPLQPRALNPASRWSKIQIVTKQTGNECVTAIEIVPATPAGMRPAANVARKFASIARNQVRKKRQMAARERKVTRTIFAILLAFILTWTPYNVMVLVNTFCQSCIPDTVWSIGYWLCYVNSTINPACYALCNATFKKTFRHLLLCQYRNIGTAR
Experiment: not given
The class given is cell membranes, CHO-K1, Membrane. To be noted: cho-k1.
Consider `CC(C)(C)NCC(O)c1ccc(O)c(CO)c1` (stereo not given) [ALBUTEROL], for which the IC50 result is listed as “Not Active”.
`CC1(C)[C@H]2CC[C@]1(C)C(=O)C2` [(-)-CAMPHOR]: the IC50 result is on record as “Not Active”.

Staying with this test, now noted: read-out: IC50.
For the compound `O=C1c2c(O)ccc(O)c2C(=O)c2c(NCCNCCO)ccc(NCCNCCO)c21` [MITOXANTRONE], the IC50 came out at 644 nM.

Still in this test, the particulars now being: read-out: Ki.
Take `O=C1c2c(O)ccc(O)c2C(=O)c2c(NCCNCCO)ccc(NCCNCCO)c21` [MITOXANTRONE]: the Ki was found to be 89.8 nM.

Test system in a further test: not listed separately
Kind of test: DRUGMATRIX: Leukotriene, BLT (LTB4) radioligand binding (ligand: [3H]LTB4). To be noted: u-937; Not Active = under 50% inhibition at 10 µM. The format is cell membranes, Membrane.
For `O=C1c2c(O)ccc(O)c2C(=O)c2c(NCCNCCO)ccc(NCCNCCO)c21` [MITOXANTRONE], the IC50 entry is “Not Active” and the Ki entry was “Not Active”.
For `CC(C)(C)NCC(O)c1ccc(O)c(CO)c1` (stereo not given) [ALBUTEROL], the IC50 entry is reported as “Not Active” and the Ki entry is given as “Not Active”.
Take `CC1(C)[C@H]2CC[C@]1(C)C(=O)C2` [(-)-CAMPHOR]: the IC50 entry is recorded as “Not Active” and the Ki entry was “Not Active”.

Another test concerns the target Melanocortin receptor 5 (Homo sapiens, UniProt P33032). Further: in other assays of this panel Not Active means under 50% inhibition at 10 µM.
Experiment: not given
The class given is cell membranes, HEK293, Membrane. To be noted: hek293.
As for `O=C1c2c(O)ccc(O)c2C(=O)c2c(NCCNCCO)ccc(NCCNCCO)c21` [MITOXANTRONE], the IC50 result is given as “Not Active”.
On the same count and under the same terms, under `CC(C)(C)NCC(O)c1ccc(O)c(CO)c1` (stereo not given) [ALBUTEROL] stands “Not Active”; under `CC1(C)[C@H]2CC[C@]1(C)C(=O)C2` [(-)-CAMPHOR], “Not Active”.

The target in the next test is Insulin receptor (Rattus norvegicus, UniProt P15127). Further: in other assays of this panel Not Active means under 50% inhibition at 10 µM.
Sequence of Insulin receptor (P15127 27-759 limits assumed): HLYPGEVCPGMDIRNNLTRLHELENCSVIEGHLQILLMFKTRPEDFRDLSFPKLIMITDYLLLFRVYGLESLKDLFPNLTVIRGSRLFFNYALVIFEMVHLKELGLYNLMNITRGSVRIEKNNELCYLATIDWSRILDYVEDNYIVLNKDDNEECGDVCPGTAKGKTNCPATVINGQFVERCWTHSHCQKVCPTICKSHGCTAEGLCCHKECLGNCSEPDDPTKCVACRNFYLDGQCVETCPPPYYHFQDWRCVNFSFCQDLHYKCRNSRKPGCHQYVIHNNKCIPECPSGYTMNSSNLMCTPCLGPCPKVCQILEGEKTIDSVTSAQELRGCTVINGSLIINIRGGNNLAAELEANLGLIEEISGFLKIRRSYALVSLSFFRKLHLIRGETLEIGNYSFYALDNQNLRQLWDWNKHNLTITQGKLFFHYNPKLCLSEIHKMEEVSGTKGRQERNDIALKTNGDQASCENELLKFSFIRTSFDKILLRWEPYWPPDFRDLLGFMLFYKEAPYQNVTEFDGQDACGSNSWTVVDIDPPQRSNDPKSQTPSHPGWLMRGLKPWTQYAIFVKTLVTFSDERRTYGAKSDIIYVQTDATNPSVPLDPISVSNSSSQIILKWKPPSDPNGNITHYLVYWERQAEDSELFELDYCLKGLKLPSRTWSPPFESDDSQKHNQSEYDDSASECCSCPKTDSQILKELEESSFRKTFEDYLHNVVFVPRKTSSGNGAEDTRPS
Sequence of Insulin receptor (P15127 764-1383 limits assumed): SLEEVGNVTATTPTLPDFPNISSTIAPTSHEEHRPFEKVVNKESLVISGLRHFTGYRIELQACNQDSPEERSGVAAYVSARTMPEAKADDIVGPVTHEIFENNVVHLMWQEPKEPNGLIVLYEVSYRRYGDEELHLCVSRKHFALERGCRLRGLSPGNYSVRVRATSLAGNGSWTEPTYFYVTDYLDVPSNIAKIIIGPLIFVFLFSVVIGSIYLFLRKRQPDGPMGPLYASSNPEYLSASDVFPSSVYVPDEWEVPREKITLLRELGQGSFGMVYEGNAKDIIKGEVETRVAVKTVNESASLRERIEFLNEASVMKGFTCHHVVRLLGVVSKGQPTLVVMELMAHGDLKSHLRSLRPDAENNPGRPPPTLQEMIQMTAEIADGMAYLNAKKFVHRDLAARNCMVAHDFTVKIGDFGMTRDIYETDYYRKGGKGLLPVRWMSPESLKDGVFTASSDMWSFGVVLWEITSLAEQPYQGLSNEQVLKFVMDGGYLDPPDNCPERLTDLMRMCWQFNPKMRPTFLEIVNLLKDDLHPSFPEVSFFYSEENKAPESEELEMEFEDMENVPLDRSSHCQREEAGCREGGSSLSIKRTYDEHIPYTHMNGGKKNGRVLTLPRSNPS
Experiment: not given
The format is cell membranes, Wistar, Liver, Membrane.
Conditions: not given
Turning to `O=C1c2c(O)ccc(O)c2C(=O)c2c(NCCNCCO)ccc(NCCNCCO)c21` [MITOXANTRONE], the IC50 entry is recorded as “Not Active”.
In the case of `CC(C)(C)NCC(O)c1ccc(O)c(CO)c1` (stereo not given) [ALBUTEROL], the IC50 result is “Not Active”.
The same measure, in the same setting: for `CC1(C)[C@H]2CC[C@]1(C)C(=O)C2` [(-)-CAMPHOR] the value was “Not Active”.

In a further test the target is Histamine H2 receptor (Homo sapiens, UniProt P25021). Further: in other assays of this panel Not Active means under 50% inhibition at 10 µM.
Experiment: not given
The class given is cell membranes, CHO-K1, Membrane. To be noted: cho-k1.
On to `O=C1c2c(O)ccc(O)c2C(=O)c2c(NCCNCCO)ccc(NCCNCCO)c21` [MITOXANTRONE], for which the IC50 result is recorded as “Not Active”.
Still for that read-out and setting: for `CC(C)(C)NCC(O)c1ccc(O)c(CO)c1` (stereo not given) [ALBUTEROL] the value was “Not Active”.
On the same count and under the same terms, for `CC1(C)[C@H]2CC[C@]1(C)C(=O)C2` [(-)-CAMPHOR] the value was “Not Active”.

A further test deals with Melanocortin receptor 3 (Homo sapiens, UniProt P41968).
Sequence of Melanocortin receptor 3 (P41968 whole entry): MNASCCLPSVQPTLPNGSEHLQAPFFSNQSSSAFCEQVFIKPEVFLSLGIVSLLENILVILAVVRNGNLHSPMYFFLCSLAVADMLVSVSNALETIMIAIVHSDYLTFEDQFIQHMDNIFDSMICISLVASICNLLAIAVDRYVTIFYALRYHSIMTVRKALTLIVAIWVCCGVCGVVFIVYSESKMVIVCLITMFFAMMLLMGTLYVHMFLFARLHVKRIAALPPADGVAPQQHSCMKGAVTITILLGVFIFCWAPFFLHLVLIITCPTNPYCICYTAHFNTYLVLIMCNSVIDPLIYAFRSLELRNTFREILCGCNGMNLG
Experiment: not given
The format is cell membranes, Membrane. To be noted: hek293.
Consider `O=C1c2c(O)ccc(O)c2C(=O)c2c(NCCNCCO)ccc(NCCNCCO)c21` [MITOXANTRONE], for which the IC50 entry was “Not Active”.
Still for that read-out and setting: for `CC(C)(C)NCC(O)c1ccc(O)c(CO)c1` (stereo not given) [ALBUTEROL] the value was “Not Active”; for `CC1(C)[C@H]2CC[C@]1(C)C(=O)C2` [(-)-CAMPHOR], “Not Active”.

In another test the target is T4, Caspase-1 (Homo sapiens, UniProt P29466).
T4 sequence (P29466 whole entry): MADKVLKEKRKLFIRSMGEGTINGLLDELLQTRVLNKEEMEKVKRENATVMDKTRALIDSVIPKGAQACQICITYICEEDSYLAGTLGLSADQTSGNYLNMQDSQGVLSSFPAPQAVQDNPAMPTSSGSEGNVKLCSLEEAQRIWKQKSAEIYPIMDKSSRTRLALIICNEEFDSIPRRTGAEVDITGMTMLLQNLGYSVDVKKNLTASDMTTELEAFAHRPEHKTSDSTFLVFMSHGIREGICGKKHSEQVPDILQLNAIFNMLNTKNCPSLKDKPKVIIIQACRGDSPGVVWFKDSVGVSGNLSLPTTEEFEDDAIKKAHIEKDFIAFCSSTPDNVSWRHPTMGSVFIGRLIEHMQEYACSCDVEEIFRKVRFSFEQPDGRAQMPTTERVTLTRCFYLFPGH
Experiment: not given
Conditions: not given
Further details: species or system Escherichia coli.
Consider `O=C1c2c(O)ccc(O)c2C(=O)c2c(NCCNCCO)ccc(NCCNCCO)c21` [MITOXANTRONE], for which the IC50 result is recorded as “Not Active”.
On the same count and under the same terms, for `CC(C)(C)NCC(O)c1ccc(O)c(CO)c1` (stereo not given) [ALBUTEROL] the value was “Not Active”; for `CC1(C)[C@H]2CC[C@]1(C)C(=O)C2` [(-)-CAMPHOR], “Not Active”.

The next test concerns the target Sodium-dependent dopamine transporter (Homo sapiens, UniProt Q01959). Kind of test: DRUGMATRIX: Dopamine Transporter radioligand binding (ligand: [125I] RTI-55). The class given is cell membranes, CHO-K1, Membrane. To be noted: cho-k1; Not Active = under 50% inhibition at 10 µM.
As to `O=C1c2c(O)ccc(O)c2C(=O)c2c(NCCNCCO)ccc(NCCNCCO)c21` [MITOXANTRONE], the IC50 entry is given as “Not Active”.
Still for that read-out and setting: under `CC(C)(C)NCC(O)c1ccc(O)c(CO)c1` (stereo not given) [ALBUTEROL] stands “Not Active”; under `CC1(C)[C@H]2CC[C@]1(C)C(=O)C2` [(-)-CAMPHOR], “Not Active”.

As a reminder, the IC50 is the concentration that inhibits the measured activity by half. As a reminder, the Ki is a dissociation constant, usually derived from enzyme kinetics or from competition with a known ligand.
